Like-named read-outs stand apart in the source and are kept apart here.
Experiments:
[1] = system: T lymphocytes (normal mouse spleen cells) stimulated with ConA; test: Mouse Spleen Cell ConA Blastogenesis Assay; type: cell-based, mouse (C57Bl/6); settings: Mus musculus, T-lymphocyte; for inhibition at 1 µg/mL: compound 1 ug/ml; for inhibition at 2.5 µg/mL: compound 2.5 ug/ml; for inhibition at 10 µg/mL: compound 10 ug/ml; for inhibition at 25 µg/mL: compound 25 ug/ml; for inhibition at 0.1 µg/mL: compound 0.1 ug/ml
Description: It is well known that several plant lectins, when cultured in vitro with lymphocytes, stimulate cellular activation and proliferation. Concanavolin, (ConA) selectively stimulates the blastogenic response of T lymphocytes.
Six to 8 week old male C57Bl/6 mice were purchased from Harlan Sprague Dawley (Indianapolis, Ind.).
Spleens were removed and were homogenized to obtain a single cell suspension. Erythrocytes were lysed by hypotonic shock. Upon determination of the viability and concentration of the lymphoid cells, they were adjusted to 4×10^6 cells/ml in culture medium (RPMI-1640) supplemented with 10% fetal bovine serum; 100 ug/ml streptomycin; 100 U/ml penicillin, 0.2M hepes buffer; 5×10^-5 M 2-mercaptoethanol and 2 mM glutamine). seeded into microtiter plate wells at 2×10^5 cells/0.050 ml/well. To these cultures were added various doses of experimental compounds and ConA at a final concentration of 4 or 1 ug/ml. Control cultures consisted of cells, ConA and culture medium containing the vehicle, DMSO only. […] For the testing of the methyl 1,3-O-isopropylidene-6-O-n-heptyl-α-D-fructofuranoside compound indomethacin and NDGA were used as controls. All cultures were run in triplicate.
Solutions of compounds of the invention in DMSO were prepared and dilutions were made in culture medium. Assay concentrations were either: 1, 2.5, 10, 25, 100, 300 and 750 ug/ml or 0.001, 0.01, 0.1, 1, 2.5, 10, 25 and 100 ug/ml.
Cultures were incubated for 3 days at 37° C. in a humidified atmosphere of 5% of CO2 in air. For the last 18 hours of culture, 1 uCi of ^3 H-thymidine was also incubated in each well. The cells were precipitated by a multi-channel harvester. The amount of ^3 H-thymidine incorporated by the cultures, as a measure of cell proliferation, was measured in a liquid scintillation counter. The amount of radioactive incorporation is proportional to the amount of cellular proliferation in individual wells. The students T test was used to determine the significance of the difference between experimental and control values.

[2] = system: T cell proliferation in mouse spleen cell mixed lymphocyte cultures; test: Mixed Lymphocyte Reaction (MLR) assay; type: cell-based, mouse (Balb/c responder, C57B1/6 stimulator); settings: for inhibition at 3 µM / inhibition at 10 µM / inhibition at 30 µM / inhibition at 100 µM / inhibition at 300 µM: Mus musculus, Lymphocyte, read-out: % Change From Control, MLR
Description: The pharmacologic assays performed to determine the immunomodulatory effects of the experimental compounds in vitro include the Mixed Lymphocyte Reaction (MLR) and the ConA blastogenesis assay. These assays were used to determine the inhibitory effects of the compounds of the invention on T lymphocyte activation and proliferation. Since inflammation at the cellular level is characterized by T lymphocyte recruitment, activation and proliferation, these assays are appropriate to use as screens for novel compounds having therapeutic potential in the treatment of disorders in which inflammatory mechanisms are involved.
The MLR is a classical assay used to measure T cell function by studying the proliferative response of T cells which are activated in vitro by genetically disparate stimulator cells. This is accomplished by co-culturing spleen cells from two different strains of mice. Splenic T cell proliferation occurs as a result of cellular activation signals generated by the ongoing cellular interactions.
Balb/c mice were euthanised by cervical dislocation and their spleens removed. Single cell suspensions of the spleens were prepared in culture medium (hepes buffered RPMI-1640 supplemented with 10% fetal calf serum, 2mM glutamine, 500 units penicillin/ streptomycin, and 4×10^-5 M 2-mercaptoethanol) using a Teflon pestle. The cells were centrifuged at 1500 rpm and the pellets resuspended in ACT (0.15M tris, 0.14M ammonium chloride, pH 7.2) in order to lyse the red blood cells. After a 5 minute incubation in a 37 C. waterbath, the cells were resuspended in culture medium and counted. C57B1/6 spleen cells which were used as stimulator cells, were also prepared by this method. The stimulator cells were treated with 100 ug/ml of mitomycin c for 1 hour at 37 C. (to inhibit stimulatory cell proliferation) and were then washed 5 times in culture medium. The proliferative responses were measured by culturing 2.5×10^5 responder cells with 5×10^5 stimulatory cells in 96 well microtiter plates in the presence or absence of various doses of test compounds or vehicle (DMSO). Syngeneic control cultures using mitomycin c treated Balb/c spleen cells as stimulator cells were also run. All cultures were run in triplicate.
Solutions of compounds of the present invention in DMSO were prepared at a stock concentration of 120 Mm. Dilutions were made in culture medium to the following concentrations: 3, 10, 30, 100, and 300 uM. The vehicle (DMSO) was used as a negative control.
After incubation of for 5 days at 37 C. with 5% CO2, the amount of cell proliferation was measured by adding 20 ul of MTT (3-[4,5-dimethylthiazol-2-yl]-2,5diphenyl-tetrazolium bromide) (10 mg/ml in phosphate buffered saline) to each well. Plates were incubated for 4 hours at 37 C., after which 180 ul of 10% sodium dodecyl sulphate in phosphate buffered saline was added. After an overnight incubation, the optical density (OD) of each well was read on a Molecular Devices microplate reader at 570-650 nm. The results were determined by calculating the difference between the means of the allogeneic cultures and the means of the syngenic cultures for each test article concentration. Differences of the test article groups were compared to the control group and the percent change from the control was determined.

[3] = ConA 1 ug/ml, read-out: % change from control, ConA blastogenic response
[4] = ConA 1 ug/ml, compound 100 ug/ml, read-out: % change from control, ConA blastogenic response
[5] = ConA 4 ug/ml, read-out: % change from control, ConA blastogenic response
[6] = ConA 4 ug/ml, compound 100 ug/ml, read-out: % change from control, ConA blastogenic response
[7] = ConA 1 ug/ml, 0.01 ug/ml, read-out: % Change from Control (Table II)
[8] = ConA 1 ug/ml, compound 0.01 ug/ml, read-out: % change from control, ConA blastogenic response
[9] = ConA 4 ug/ml, 0.01 ug/ml, read-out: % Change from Control (Table II)
[10] = ConA 4 ug/ml, compound 0.01 ug/ml, read-out: % change from control, ConA blastogenic response

Row | Structure (SMILES) | inhibition at 1 µg/mL [1, 3] | inhibition at 2.5 µg/mL [1, 3] | inhibition at 10 µg/mL [1, 3] | inhibition at 25 µg/mL [1, 3] | inhibition at 100 µg/mL [1, 4] | inhibition at 1 µg/mL [1, 5] | inhibition at 2.5 µg/mL [1, 5] | inhibition at 10 µg/mL [1, 5] | inhibition at 25 µg/mL [1, 5] | inhibition at 100 µg/mL [1, 6] | inhibition at 0.01 µg/mL [1, 7] | inhibition at 0.01 µg/mL [1, 8] | inhibition at 0.1 µg/mL [1, 3] | inhibition at 0.01 µg/mL [1, 9] | inhibition at 0.01 µg/mL [1, 10] | inhibition at 0.1 µg/mL [1, 5] | Mean O.D. Allogenic ([2]; 3 um) | Mean O.D. Syngeneic ([2]; 3 um) | Mean O.D. Allogenic ([2]; 10 um) | Mean O.D. Syngeneic ([2]; 10 um) | other results
1 | CCCCCCCCCCCCOC1C(C(O)CO)OC2OC(C)(C)OC21 [IIa, 1,2-O-Isopropylidene-3-O-n-dodecyl-α-D-glucofuranose] | 21% | 60% | 95% | 99% | 100% | 33% | 50% | 83% | 94% | 100% | – | – | – | – | – | – | – | – | – | – | inhibition at 100 µg/mL ([1]; 100 ug/ml, read-out: strong inhibition of ConA stimulated T lymphocyte proliferation): < 50%; % Change From Control, MLR ([2]; Table X, 3 ugm): -19%; % Change From Control, MLR ([2]; Table X, 10 ugm): -40%; Mean O.D. Allogenic ([2]; Table X, 10 ugm): 0.185 O.D.; Mean O.D. Syngeneic ([2]; Table X, 10 ugm): 0.135 O.D.; % Change From Control, MLR ([2]; Table X, 30 ugm): 23%; Mean O.D. Allogenic ([2]; Table X, 30 ugm): 0.158 O.D.; Mean O.D. Syngeneic ([2]; Table X, 30 ugm): 0.056 O.D.; % Change From Control, MLR ([2]; Table X, 100 ugm): -86%; % Change From Control, MLR ([2]; Table X, 300 ugm): -96%; strong non-dose dependent inhibition in MLR ([2]; several concentrations): greater than -50 % of control
2 | CCCCCCCOC[C@H]1O[C@](COCC)(OC)[C@@H](OCC)[C@@H]1O [Ib, methyl 1,3-di-O-ethyl-6-O-heptyl-α-D-fructofuranoside] | 72% | 92% | 96% | 97% | 99% | 67% | 68% | 76% | 86% | 99% | 55% | 57% | 66% | 25% | 35% | 45% | 0.319 O.D. | 0.162 O.D. | 0.382 O.D. | 0.194 O.D. | Mean O.D. Allogenic ([2]; 30 um): 0.372 O.D.; Mean O.D. Syngeneic ([2]; 30 um): 0.185 O.D.; Mean O.D. Allogenic ([2]; 100 um): 0.353 O.D.; Mean O.D. Syngeneic ([2]; 100 um): 0.223 O.D.; Mean O.D. Allogenic ([2]; 300 um): 0.265 O.D.; Mean O.D. Syngeneic ([2]; 300 um): 0.189 O.D.; inhibition at 3 µM ([2]; 3 um): 18%; inhibition at 10 µM ([2]; 10 um): 2%; inhibition at 30 µM ([2]; 30 um): 3%; inhibition at 100 µM ([2]; 100 um): 32%; inhibition at 300 µM ([2]; 300 um): 60%
3 | CCCCCCCO[C@@H]1[C@@H](CO)O[C@@]2(OC)COC(C)(C)O[C@@H]12 [Ic, methyl 1,3-O-isopropylidene-4-O-heptyl-α-D-fructofuranoside] | 19% | 21% | 79% | 99% | 100% | 35% | 51% | 91% | 99% | 100% | -11% | -8% | 3% | 8% | -14% | 8% | 0.207 O.D. | 0.096 O.D. | 0.198 O.D. | 0.106 O.D. | Mean O.D. Allogenic ([2]; 30 um): 0.200 O.D.; Mean O.D. Syngeneic ([2]; 30 um): 0.148 O.D.; Mean O.D. Allogenic ([2]; 100 um): 0.163 O.D.; Mean O.D. Syngeneic ([2]; 100 um): 0.077 O.D.; Mean O.D. Allogenic ([2]; 300 um): 0.034 O.D.; Mean O.D. Syngeneic ([2]; 300 um): 0.159 O.D.; inhibition at 3 µM ([2]; 3 um): -34%; inhibition at 10 µM ([2]; 10 um): -11%; inhibition at 30 µM ([2]; 30 um): 37%; inhibition at 100 µM ([2]; 100 um): -4%; inhibition at 300 µM ([2]; 300 um): 251%
4 | CCCCC/C=C\COC[C@H]1O[C@@]2(OC)COC(C)(C)O[C@H]2[C@@H]1OC/C=C\CCCCC [If, methyl 1,3-O-isopropylidene-4,6-di-O-(cis,2-octenyl)-α-D-fructofuranoside] | 14% | 25% | 74% | 85% | 4% | 26% | 42% | 79% | 87% | 88% | 8% | -6% | 2% | 4% | 0% | 23% | 0.195 O.D. | 0.140 O.D. | 0.199 O.D. | 0.134 O.D. | Mean O.D. Allogenic ([2]; 30 um): 0.199 O.D.; Mean O.D. Syngeneic ([2]; 30 um): 0.164 O.D.; Mean O.D. Allogenic ([2]; 100 um): 0.102 O.D.; Mean O.D. Syngeneic ([2]; 100 um): 0.025 O.D.; Mean O.D. Allogenic ([2]; 300 um): 0.032 O.D.; Mean O.D. Syngeneic ([2]; 300 um): 0.022 O.D.; inhibition at 3 µM ([2]; 3 um): 34%; inhibition at 10 µM ([2]; 10 um): 22%; inhibition at 30 µM ([2]; 30 um): 58%; inhibition at 100 µM ([2]; 100 um): 7%; inhibition at 300 µM ([2]; 300 um): 88%

Reference: patent publication US5298494A, “Monosaccharides having anti-proliferation and anti-inflammatory activity, compositions and uses thereof” (Greenwich Pharmaceuticals Incorporated, priority 1993, dated 1994)
